Source: patent US8653089B2, “Heterocyclic compounds and methods of use” (F. Hoffmann-La Roche AG, priority 2011, dated 2014)

test system: production of CD69 by B lymphocytes in human whole blood activated by crosslinking surface IgM; assay: CD69 human whole blood assay (Example 903), FACS; assay type: cell-based; settings: B lymphocytes activated with goat F(ab')2 anti-human IgM, read-out: CD69 Hu Blood FACS IC50
Source text: There is good evidence that B-cells play a key role in the pathogenesis of autoimmune and/or inflammatory disease. Protein-based therapeutics that deplete B cells such as Rituxan are effective against autoantibody-driven inflammatory diseases such as rheumatoid arthritis (Rastetter et al. (2004) Annu Rev Med 55:477). CD69 is the early activation marker in leukocytes including T cells, thymocytes, B cells, NK cells, neutrophils, and eosinophils. The CD69 human whole blood assay (Example 903) determines the ability of compounds to inhibit the production of CD69 by B lymphocytes in human whole blood activated by crosslinking surface IgM with goat F(ab′)2 anti-human IgM.

IC50	Compound
62.9 nM	CC(Nc1ncnc2[nH]cnc12)c1nc2ccc(F)cc2n1-c1cccnc1 (stereo not shown) [Example 176, [1-(6-Fluoro-1-pyridin-3-yl-1H-benzoimidazol-2-yl)-ethyl]-(9H-purin-6-yl)-amine]
134 nM	CC(Nc1ncnc2[nH]cnc12)c1nc2ccc(F)cc2n1-c1ccc(F)cc1 (stereo not shown) [Example 186, {1-[6-Fluoro-1-(4-fluoro-phenyl)-1H-benzoimidazol-2-yl]-ethyl}-(9H-purin-6-yl)-amine]
12.7 nM	CC(Nc1ncnc2[nH]cnc12)c1nc2ccc(F)cc2n1-c1cccnc1 (stereo not shown) [Example 220, [1-(6-Fluoro-1-pyridin-3-yl-1H-benzoimidazol-2-yl)-ethyl]-(9H-purin-6-yl)-amine]
20.2 nM	CC(Nc1ncnc2[nH]cnc12)c1nc2ccc(F)cc2n1-c1ccccn1 (stereo not shown) [Example 210, [1-(6-Fluoro-1-pyridin-2-yl-1H-benzoimidazol-2-yl)-ethyl]-(9H-purin-6-yl)-amine]

same assay, conditions: Homo sapiens, Lymphocyte, B lymphocytes activated with goat F(ab')2 anti-human IgM, read-out: CD69 Hu Blood FACS IC50

Compound	IC50
C[C@H](Nc1ncnc(N)c1C#N)c1nc2ccc(F)c(C#N)c2n1-c1ccccc1 [Example 330, 2-[(S)-1-(6-Amino-5-cyano-pyrimidin-4-ylamino)-ethyl]-5-fluoro-3-phenyl-3H-benzoimidazole-4-carbonitrile]	12.9 nM
C[C@H](Nc1ncnc2[nH]cnc12)c1nc2cccc(C#N)c2n1-c1ccccc1 [Example 279, 3-Phenyl-2-[(S)-1-(9H-purin-6-ylamino)-ethyl]-3H-benzoimidazole-4-carbonitrile]	184 nM
C[C@H](Nc1ncnc(N)c1C#N)c1nc2ccc(F)c3c2n1CCCC3 [Example 406, 4-Amino-6-[(S)-1-(5-fluoro-6,7,8,9-tetrahydro-2,9a-diazabenzo[cd]azulen-1-yl)ethylamino]pyrimidine-5-carbonitrile]	32.6 nM
C[C@H](Nc1ncnc2[nH]cnc12)c1nc2ccc(F)c(C3CC3)c2n1-c1cccnc1 [Example 294, [(S)-1-(7-Cyclopropyl-6-fluoro-1-pyridin-3-yl-1H-benzoimidazol-2-yl)-ethyl]-(9H-purin-6-yl)-amine]	4.1 nM
CC(Nc1ncnc2[nH]cnc12)c1nc2ccc(F)cc2n1-c1ccc(F)cn1 (stereo not shown) [Example 208, {1-[6-Fluoro-1-(5-fluoro-pyridin-2-yl)-1H-benzoimidazol-2-yl]-ethyl}-(9H-purin-6-yl)-amine]	206 nM
C[C@H](Nc1ncnc(N)c1C#N)c1nc2ccc(F)c(CC#N)c2n1-c1ccccc1 [Example 345, 4-Amino-6-[(S)-1-(7-cyanomethyl-6-fluoro-1-phenyl-1H-benzoimidazol-2-yl)-ethylamino]-pyrimidine-5-carbonitrile]	2.91 nM
C[C@H](Nc1ncnc2[nH]cnc12)c1nc2ccc(F)cc2n1C1CCCCC1 [Example 201, [(S)-1-(1-Cyclohexyl-6-fluoro-1H-benzoimidazol-2-yl)-ethyl]-(9H-purin-6-yl)-amine]	118 nM
CC(Nc1ncnc2[nH]cnc12)c1nc2ccc(F)c(Cl)c2n1-c1ccccc1 (stereo not shown) [Example 179, [1-(7-Chloro-6-fluoro-1-phenyl-1H-benzoimidazol-2-yl)-ethyl]-(9H-purin-6-yl)-amine]	146 nM
Cc1nc(N)nc(N[C@@H](C)c2nc3ccc(F)cc3n2-c2ccccn2)c1C#N [Example 333, 2-Amino-4-[(S)-1-(6-fluoro-1-pyridin-2-yl-1H-benzoimidazol-2-yl)-ethylamino]-6-methyl-pyrimidine-5-carbonitrile]	4.92 nM
COC(=O)c1c(F)ccc2nc(C(C)Nc3ncnc4[nH]cnc34)n(-c3ccccc3)c12 (stereo not shown) [Example 197, 5-Fluoro-3-phenyl-2-[1-(9H-purin-6-ylamino)-ethyl]-3H-benzoimidazole-4-carboxylic acid methyl ester]	31.6 nM
OC[C@H](Nc1ncnc2[nH]cnc12)c1nc2ccc(F)cc2n1-c1ccccn1 [Example 280, (R)-2-(6-Fluoro-1-pyridin-2-yl-1H-benzoimidazol-2-yl)-2-(9H-purin-6-ylamino)-ethanol]	139 nM

Results, then the compound that gave them:

IC50	Compound
253 nM	C[C@H](Nc1ncnc2[nH]cnc12)c1nc2ccc(F)cc2n1-c1ccc2c(c1)OCO2 [Example 320, [(S)-1-(l-Benzo[1,3]dioxol-5-yl-6-fluoro-1H-benzoimidazol-2-yl)-ethyl]-(9H-purin-6-yl)-amine]
48.4 nM	C[C@H](Nc1ncnc(N)c1C#N)c1nc2ccc(F)cc2n1-c1ccncc1 [Example 354, 4-Amino-6-[(S)-1-(6-fluoro-1-pyridin-4-yl-1H-benzoimidazol-2-yl)-ethylamino]-pyrimidine-5-carbonitrile]
64.2 nM	CC(C)n1c([C@H](C)Nc2ncnc3[nH]cnc23)nc2ccc(F)c(-c3ccccn3)c21 [Example 409, N-[(1S)-1-[6-fluoro-1-isopropyl-7-(2-pyridyl)benzimidazol-2-yl]ethyl]-9H-purin-6-amine]
301 nM	C[C@H](Nc1ncnc2[nH]cnc12)c1nc2ccc(Cl)cc2n1-c1ccccc1 [Example 173, [(S)-1-(6-Chloro-1-phenyl-1H-benzoimidazol-2-yl)-ethyl]-(9H-Aurin-6-yl)-amine]
53 nM	CC(Nc1ncnc2[nH]cnc12)c1nc2ccc(F)cc2n1-c1ccccc1F (stereo not shown) [Example 195, {1-[6-Fluoro-1-(2-fluoro-phenyl)-1H-benzoimidazol-2-yl]-ethyl}-(9H-purin-6-yl)-amine]
606 nM	Cc1nccc(N[C@@H](C)c2nc3ccc(F)cc3n2-c2ccccc2)c1C#N [Example 340, 4-[(S)-1-(6-Fluoro-1-phenyl-1H-benzoimidazol-2-yl)-ethylamino]-2-methyl-nicotinonitrile]
78.3 nM	CC(Nc1ncnc2[nH]cnc12)c1nc2ccc(F)cc2n1-c1ccc(C#N)cc1 (stereo not shown) [Example 227, 4-{6-Fluoro-2-[1-(9H-purin-6-ylamino)-ethyl]-benzoimidazol-1-yl}-benzonitrile]
